Laboratory results from patent publication US11160766B2, “Peritoneal therapeutic fluid” (OPTERION Health AG, priority 2015, dated 2021).
Several values for one entry are separate records, joined by “and”; a condition that tells them apart may be missing. Equal values may be shown once. Blank lines part the entries; values can stand above or below the molecule they belong to.

Key:
[1] = tested on: Human peritoneal mesothelial cells (HPMC); assay: resazurin cell viability assay on HPMC exposed to PD solutions; format: cell-based; details: for effect on cell viability in control medium: Medium control without cytotoxic stress, until Cmax (500 μM); for effect reducing cyto-toxicity of all three tested peritoneal dialysis solutions: Example 2 conclusion, PD solutions #1 to #3; for cell viability on Glucose based and on Icodextrin based PD-Solutions: summary of examples 1 to 4; for type of dialysis solution mainly improved: summary of example 4; for improvement of viability of HPMC cells (resazurin to resorufin conversion): Example 3, added 5 minutes in advance, triplicate
Protocol: (§1) Human peritoneal mesothelial cells (HPMC) were purchased from Zen Bio Inc. and cultured in cell culture flasks using suppliers media. Near confluent HPMC were harvested by trypsinization, seeded into collagen-coated 96-well tissue culture plates (Corning) and allowed to adhere overnight. The medium was changed to twice diluted with dialysis solution for 48 up to 72 hours.
Cell viability was established applying the promega resazurin assay, following the suppliers protocol. Living cells are metabolically active and are able to reduce the non-fluorescent dye resazurin to the strongly-fluorescent dye resorufin. The fluorescence output is proportional to the number of viable cells over a wide concentration range. This also allows the calculation of the proliferation rate for cells capable of consecutive cell division. […] For the dose-response relationship, relative viability was plotted against the test item concentrations.
All assays were conducted in a duplex format using the same cell culture.
Addition of selected BCAs of this invention partially reestablished reszurin to reorufin conversion, which is interpreted as a result of a decreased cytotoxicity, due to the application of the tested BCAs. Compounds were added at 9 dilutions (Cmax=500 μM) together with tested PD solutions or Medium control. Incubation was 48 hours.
Addition of selected BCA resveratrol partially reestablished resazurin to reorufin conversion, in a triplicate assay, which is interpreted as a result of a decreased cytotoxicity, due to the application of the tested BCA. In this series, Resveratrol was added 5 minutes in advance to application of test-solutions, at 9 dilutions (Cmax=500 μM). Incubation was 72 hours.
partially reestablished resazurin to reorufin conversion, or partly re-established intracellular ATP-level, which is interpreted as a result of a decreased cytotoxicity, due to the application of the tested BCA. Test items were tested at 3 replicates per concentration. All assays were conducted in a duplex format using the same cell culture. Incubation was 72 hours.

[2] = tested on: Human peritoneal mesothelial cells (HPMC); assay: CTG assay, intra-cellular ATP level in HPMC exposed to PD solution; format: cell-based; details: Example 4; PD-Solution #4; 72 hours
Protocol: as §1
In the case of Piceid, the intra-cellular ATP level was determined with the CTG assay. For this, media was completely removed from all wells by aspiration, 60 μl of CTG reagent was added to each well, and incubated for 5 min at RT while softly shaking (50 rpm). Using a Victor3 1420 Multilabel Counter, the emitted luminescence produced in the CTG assay was measured. For the dose-response relationship, absolute luminescence (background subtracted) was related to the negative (medium) control and relative viability values were plotted against the test item concentrations. For the dose-response relationship, absolute luminescence (background subtracted) was related to the negative (medium) control and relative viability values in presence of BCA were plotted against the BCA concentrations.
partially reestablished resazurin to reorufin conversion, or partly re-established intracellular ATP-level, which is interpreted as a result of a decreased cytotoxicity, due to the application of the tested BCA. […]

VEGF = assay: peritoneal tissue VEGF (ELISA) in rats after chronic peritoneal dialysis; format: in vivo, Sprague-Dawley rats; details: for VEGF concentration (pg/mL) in prot. prep., single animals: peritoneal tissue
Protocol: Animal Studies have been carried out as described in Lee et al. 2012: Peritoneal access ports were inserted in male Sprague-Dawley rats. After one week, rats started to received peritoneal treatment: 10 rats receive once daily 20 ml of Sol #4, 10 rats received 20 ml of Sol #4 with addition of selected BCA (resveratrol), during 2 hour infusions. After 2 to 4 weeks, the abdomen was opened, the peritoneum was recovered and submitted to protein extraction. Tissue VEGF concentration was established by ELISA (Abcam Rat VEGF ELISA Kit, ab100787) on obtained protein preparations (pg/ml).

[3] = concentration (solubility) after stirring at room temperature; format: physicochemical
Protocol: Concentrations of BCA in the present invention are preferably measured after 1 hour stirring at room temperature (which is preferably 20-23° C., more preferably 22° C.), particularly if the BCA is a polyphenolic compound, a metabolite of a polyphenolic compound which is obtained by metabolization in the human or animal body, a salt of a polyphenolic compound, a glycoside of a polyphenolic compound, or derivative of these compounds. So, concentrations of said compound correspond to measured solubility after 1 hour stirring at room temperature. Concentration is measured in a PTF of the invention. So, BCA can be dissolved in water. Other ingredients of a PTF, which are mentioned in this description, are preferably present. If not specifically indicated, or if not specifically indicated otherwise, the time of stirring is one hour. In some cases, other stirring times are indicated, such as 12 hours.

[4] = Example 2, PD-Solution #1, 48 hours, 9 dilutions, Cmax=500 μM
[5] = Example 2, PD-Solution #2, 48 hours, 9 dilutions, Cmax=500 μM
[6] = Example 4, PD-Solution #3, 72 hours, 3 replicates per concentration
[7] = Example 4, PD-Solution #4, 72 hours, 3 replicates per concentration

SMILES: OC[C@H]1O[C@@H](Oc2cc(O)cc(/C=C/c3ccc(O)cc3)c2)[C@H](O)[C@@H](O)[C@@H]1O [Piceid, resveratrol-3-O-β-mono-D-glucoside]
effect on cell viability in control medium ([1]; Example 2, 48 hours): no significant effect
improvement of cell viability of HPMC cells (resazurin to resorufin conversion) [1, 4]: minor improvements
improvement of cell viability of HPMC cells (resazurin to resorufin conversion) [1, 5]: minor improvements
effect reducing cyto-toxicity of all three tested peritoneal dialysis solutions ([1]; 48 hours): minor effect
improvement of cell viability of HPMC cells (resazurin to resorufin conversion) [1, 6]: up to 32%
improvement of cell viability of HPMC cells (resazurin to resorufin conversion) [1, 7]: up to 17%
cell viability on Glucose based and on Icodextrin based PD-Solutions [1]: increased cell viability
improvement of viability of HPMC cells measured by ATP-level re-establishment [2]: 51%

SMILES: O=C(O)/C=C/c1ccc(O)c(O)c1 [Cafeic Acid, caffeic acid]
improvement of cell viability of HPMC cells (resazurin to resorufin conversion) [1, 6]: up to 32%
improvement of cell viability of HPMC cells (resazurin to resorufin conversion) [1, 7]: minor
type of dialysis solution mainly improved [1]: mainly improved Icodextrin based dialysis solutions

SMILES: O=c1cc(-c2ccc(O)c(O)c2)oc2cc(O)cc(O)c12 [Luteolin]
improvement of cell viability of HPMC cells (resazurin to resorufin conversion) [1, 6]: up to 56%
improvement of cell viability of HPMC cells (resazurin to resorufin conversion) [1, 7]: up to 21%
type of dialysis solution mainly improved [1]: mainly improved Icodextrin based dialysis solutions

SMILES: Oc1cc(O)c2cc(O)c(-c3cc(O)c(O)c(O)c3)[o+]c2c1 [Delphinidin]
improvement of cell viability of HPMC cells (resazurin to resorufin conversion) [1, 6]: up to 57%

SMILES: COc1cc(/C=C/c2ccc(O)cc2)cc(OC)c1 [Pterostilbene]
improvement of cell viability of HPMC cells (resazurin to resorufin conversion) [1, 6]: 183%
improvement of cell viability of HPMC cells (resazurin to resorufin conversion) [1, 7]: 118%

SMILES: Oc1cc(O)cc(/C=C/c2ccc(O)c(O)c2)c1 [Piceatannol]
improvement of cell viability of HPMC cells (resazurin to resorufin conversion) [1, 6]: up to 44%
improvement of cell viability of HPMC cells (resazurin to resorufin conversion) [1, 7]: up to 40%

concentration after 12 hours stirring [3]: above 24 mg/L
SMILES: Oc1ccc(/C=C/c2cc(O)cc(O)c2)cc1 [Resveratrol, trans-3,5,4′-trihydroxystilbene]
effect on cell viability in control medium ([1]; Example 2, 48 hours): no significant effect
improvement of cell viability of HPMC cells (resazurin to resorufin conversion) [1, 4]: up to 20%
improvement of cell viability of HPMC cells (resazurin to resorufin conversion) [1, 5]: up to 40%
improvement of cell viability of HPMC cells (resazurin to resorufin conversion) ([1]; Example 2, PD-Solution #3, 48 hours, 9 dilutions, Cmax=500 μM): up to 40%
effect reducing cyto-toxicity of all three tested peritoneal dialysis solutions ([1]; 48 hours): strong effect
improvement of viability of HPMC cells (resazurin to resorufin conversion) ([1]; PD-Solution #1, 72 hours, Cmax=500 μM): up to 84%
improvement of viability of HPMC cells (resazurin to resorufin conversion) ([1]; PD-Solution #2, 72 hours, Cmax=500 μM): up to 28%
improvement of viability of HPMC cells (resazurin to resorufin conversion) ([1]; PD-Solution #3, 72 hours, Cmax=500 μM): up to 105%
cell viability on Glucose based and on Icodextrin based PD-Solutions [1]: increased cell viability
VEGF concentration (pg/mL) in prot. prep., Average (VEGF; Sol #4 + 40 μM Resveratrol, 2 and 4 weeks combined, 10 rats): 60.94 pg/mL
VEGF concentration (pg/mL) in prot. prep., single animals (VEGF; Sol #4 + 40 μM Resveratrol, 2 weeks treatment): 50.21 pg/mL and 39.99 pg/mL and 70.88 pg/mL and 77.84 pg/mL and 60.12 pg/mL
VEGF concentration (pg/mL) in prot. prep., single animals (VEGF; Sol #4 + 40 μM Resveratrol, 4 weeks treatment): 62.02 pg/mL and 63.71 pg/mL and 57.91 pg/mL and 68.45 pg/mL and 58.23 pg/mL
expression of VEGF in the peritoneum of standard PDF treated rats (VEGF; addition to Sol #4, 2 to 4 weeks peritoneal dialysis): decreases expression of VEGF
